Data: PubChem BioAssay (NCI)
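Method: 48-hour compound exposure of cells in 96-well plates, five concentrations, linear interpolation of endpoints. The concentration for full growth arrest is given as TGI.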

What was measured:
Test in all cases: NCI anticancer screen, dose series, 48 h
786-0 renal = tested on: 786-0 renal
A498 renal = tested on: A498 renal
A549 NSCLC = tested on: A549 NSCLC
ACHN renal = tested on: ACHN renal
BT-549 breast = tested on: BT-549 breast
CCRF-CEM leukemia = tested on: CCRF-CEM leukemia
COLO 205 colon = tested on: COLO 205 colon
DU-145 prostate = tested on: DU-145 prostate
EKVX NSCLC = tested on: EKVX NSCLC
HCC-2998 colon = tested on: HCC-2998 colon
HCT-15 colon = tested on: HCT-15 colon
HL-60(TB) leukemia = tested on: HL-60(TB) leukemia
HOP-62 NSCLC = tested on: HOP-62 NSCLC
HS 578T breast = tested on: HS 578T breast
HT29 colon = tested on: HT29 colon
IGROV1 ovarian = tested on: IGROV1 ovarian
K-562 leukemia = tested on: K-562 leukemia
LOX IMVI melanoma = tested on: LOX IMVI melanoma
M14 melanoma = tested on: M14 melanoma
MALME-3M melanoma = tested on: MALME-3M melanoma
MCF7 breast = tested on: MCF7 breast
MDA-MB-231 breast = tested on: MDA-MB-231 breast
MDA-N = tested on: MDA-N
MOLT-4 leukemia = tested on: MOLT-4 leukemia
NCI-H226 lung = tested on: NCI-H226 lung
NCI-H23 lung = tested on: NCI-H23 lung
NCI-H460 lung = tested on: NCI-H460 lung
NCI-H522 lung = tested on: NCI-H522 lung
NCI/ADR-RES ovarian = tested on: NCI/ADR-RES ovarian
OVCAR-3 ovarian = tested on: OVCAR-3 ovarian
OVCAR-4 ovarian = tested on: OVCAR-4 ovarian
OVCAR-5 ovarian = tested on: OVCAR-5 ovarian
OVCAR-8 ovarian = tested on: OVCAR-8 ovarian
PC-3 prostate = tested on: PC-3 prostate
RPMI-8226 leukemia = tested on: RPMI-8226 leukemia
RXF 393 renal = tested on: RXF 393 renal
SF-268 CNS = tested on: SF-268 CNS
SF-295 CNS = tested on: SF-295 CNS
SF-539 CNS = tested on: SF-539 CNS
SK-MEL-2 melanoma = tested on: SK-MEL-2 melanoma
SK-MEL-28 melanoma = tested on: SK-MEL-28 melanoma
SK-MEL-5 melanoma = tested on: SK-MEL-5 melanoma
SK-OV-3 ovarian = tested on: SK-OV-3 ovarian
SN12C renal = tested on: SN12C renal
SNB-19 CNS = tested on: SNB-19 CNS
SNB-75 CNS = tested on: SNB-75 CNS
SR leukemia = tested on: SR leukemia
SW-620 colon = tested on: SW-620 colon
T-47D breast = tested on: T-47D breast
TK-10 renal = tested on: TK-10 renal
U251 CNS = tested on: U251 CNS
UACC-62 melanoma = tested on: UACC-62 melanoma
UO-31 renal = tested on: UO-31 renal
CAKI-1 renal = tested on: CAKI-1 renal
HCT-116 colon = tested on: HCT-116 colon
HOP-92 NSCLC = tested on: HOP-92 NSCLC
KM12 colon = tested on: KM12 colon
MDA-MB-435 = tested on: MDA-MB-435
UACC-257 melanoma = tested on: UACC-257 melanoma

CNc1ccc(Cl)cc1S(=O)(=O)c1ccccc1[N+](=O)[O-]
TGI (786-0 renal): > 100 µM | TGI (A498 renal): > 100 µM | TGI (A549 NSCLC): > 100 µM | TGI (ACHN renal): > 100 µM | TGI (BT-549 breast): > 100 µM | TGI (CCRF-CEM leukemia): > 100 µM | TGI (COLO 205 colon): > 100 µM | TGI (DU-145 prostate): > 100 µM | TGI (EKVX NSCLC): > 100 µM | TGI (HCC-2998 colon): > 100 µM | TGI (HCT-15 colon): > 100 µM | TGI (HL-60(TB) leukemia): > 100 µM | TGI (HOP-62 NSCLC): > 100 µM | TGI (HS 578T breast): > 100 µM | TGI (HT29 colon): > 100 µM | TGI (IGROV1 ovarian): > 100 µM | TGI (K-562 leukemia): > 100 µM | TGI (LOX IMVI melanoma): > 100 µM | TGI (M14 melanoma): > 100 µM | TGI (MALME-3M melanoma): > 100 µM | TGI (MCF7 breast): > 100 µM | TGI (MDA-MB-231 breast): > 100 µM | TGI (MDA-N): > 100 µM | TGI (MOLT-4 leukemia): > 100 µM | TGI (NCI-H226 lung): > 100 µM | TGI (NCI-H23 lung): > 100 µM | TGI (NCI-H460 lung): > 100 µM | TGI (NCI-H522 lung): > 100 µM | TGI (NCI/ADR-RES ovarian): > 100 µM | TGI (OVCAR-3 ovarian): > 100 µM | TGI (OVCAR-4 ovarian): > 100 µM | TGI (OVCAR-5 ovarian): > 100 µM | TGI (OVCAR-8 ovarian): > 100 µM | TGI (PC-3 prostate): > 100 µM | TGI (RPMI-8226 leukemia): > 100 µM | TGI (RXF 393 renal): > 100 µM | TGI (SF-268 CNS): > 100 µM | TGI (SF-295 CNS): > 100 µM | TGI (SF-539 CNS): > 100 µM | TGI (SK-MEL-2 melanoma): > 100 µM | TGI (SK-MEL-28 melanoma): > 100 µM | TGI (SK-MEL-5 melanoma): > 100 µM | TGI (SK-OV-3 ovarian): > 100 µM | TGI (SN12C renal): > 100 µM | TGI (SNB-19 CNS): > 100 µM | TGI (SNB-75 CNS): > 100 µM | TGI (SR leukemia): > 100 µM | TGI (SW-620 colon): > 100 µM | TGI (T-47D breast): > 100 µM | TGI (TK-10 renal): > 100 µM | TGI (U251 CNS): > 100 µM | TGI (UACC-62 melanoma): > 100 µM | TGI (UO-31 renal): > 100 µM

O=C1/C(=C\c2cccc(Oc3ccccc3)c2)SC(c2ccccc2)N1c1cccc([N+](=O)[O-])c1 (stereo not drawn)
TGI (786-0 renal): > 100 µM | TGI (A498 renal): > 100 µM | TGI (A549 NSCLC): > 100 µM | TGI (ACHN renal): > 100 µM | TGI (BT-549 breast): > 100 µM | TGI (CAKI-1 renal): > 100 µM | TGI (CCRF-CEM leukemia): 81.2 µM | TGI (COLO 205 colon): > 100 µM | TGI (DU-145 prostate): > 100 µM | TGI (EKVX NSCLC): > 100 µM | TGI (HCC-2998 colon): > 100 µM | TGI (HCT-116 colon): > 100 µM | TGI (HCT-15 colon): > 100 µM | TGI (HOP-62 NSCLC): > 100 µM | TGI (HOP-92 NSCLC): > 100 µM | TGI (HS 578T breast): > 100 µM | TGI (HT29 colon): > 100 µM | TGI (K-562 leukemia): > 100 µM | TGI (KM12 colon): > 100 µM | TGI (LOX IMVI melanoma): > 100 µM | TGI (M14 melanoma): > 100 µM | TGI (MALME-3M melanoma): > 100 µM | TGI (MCF7 breast): > 100 µM | TGI (MDA-MB-231 breast): > 100 µM | TGI (MDA-MB-435): > 100 µM | TGI (MDA-N): > 100 µM | TGI (MOLT-4 leukemia): > 100 µM | TGI (NCI-H226 lung): > 100 µM | TGI (NCI-H23 lung): > 100 µM | TGI (NCI-H460 lung): > 100 µM | TGI (NCI-H522 lung): > 100 µM | TGI (NCI/ADR-RES ovarian): > 100 µM | TGI (OVCAR-3 ovarian): > 100 µM | TGI (OVCAR-4 ovarian): > 100 µM | TGI (OVCAR-5 ovarian): > 100 µM | TGI (OVCAR-8 ovarian): > 100 µM | TGI (RPMI-8226 leukemia): > 100 µM | TGI (RXF 393 renal): > 100 µM | TGI (SF-268 CNS): > 100 µM | TGI (SF-295 CNS): > 100 µM | TGI (SF-539 CNS): 63.3 µM | TGI (SK-MEL-2 melanoma): > 100 µM | TGI (SK-MEL-28 melanoma): > 100 µM | TGI (SK-MEL-5 melanoma): > 100 µM | TGI (SK-OV-3 ovarian): > 100 µM | TGI (SN12C renal): > 100 µM | TGI (SNB-19 CNS): > 100 µM | TGI (SR leukemia): > 100 µM | TGI (SW-620 colon): > 100 µM | TGI (T-47D breast): > 100 µM | TGI (TK-10 renal): > 100 µM | TGI (U251 CNS): > 100 µM | TGI (UACC-257 melanoma): > 100 µM | TGI (UACC-62 melanoma): > 100 µM | TGI (UO-31 renal): > 100 µM
